For one assay, the system named is MCF-10A cells. Put plainly: MTT assay, cytotoxicity on normal mammary epithelial cells MCF-10A. To be noted: 72 h, normal cells, mean ± SD of three experiments. The class given is cell-based, human. The procedure:
(§1) All cell lines used for the reported studies were purchased from the American Type Culture Collection (ATCC, Manassas, VA, USA). Human breast cancer cells MCF-7 and MDA-MB-231 were maintained in Dulbecco’s Modified Eagle Medium/Nutrient Mixture F12 Ham (DMEM/F12) supplemented with 5% fetal bovine serum (FBS), 1% L-glutamine and 100 units/mL of penicillin/streptomycin. Human mammary epithelial cells MCF-10A were cultured in DMEM/F12 medium, supplemented with 5% horse serum (HS), 100 units/mL of penicillin/streptomycin, […], 0.02 µg/mL human epidermal growth factor (EGF), 10 µg/mL insulin and […] [34]. The murine macrophages RAW 264.7 were grown in Dulbecco’s Modified Eagle’s Medium (DMEM) high glucose (4.5 g/L), added with 10% fetal bovine serum (FBS), 1% L-glutamine and 100 units/mL of penicillin/streptomycin. Cells were maintained at 37 °C, in a humidified atmosphere containing 5% CO2.
(§2) Cell viability was determined using the 3-(4,5-dimethylthiazol-2-y1)-2,5-diphenyltetrazolium bromide assay (MTT, Sigma-Aldrich, Milan, Italy), as in [35]. Cells were treated for 72 h (anticancer activity) or 24 h (anti-inflammatory activity) at different concentrations and the IC50 values were obtained using GraphPad Prism 9 software (GraphPad Software, La Jolla, CA, USA).

Assay [1] concerns Staphylococcus aureus (ATCC 23235). Put plainly: MIC and MBC by broth dilution, S. aureus. The class given is cell-based. To be noted: for MIC: Staphylococcus aureus, ATCC23235, read-out: M.I.C. S. aureus; for MIC / M.B.C. S. aureus / M.I.C. S. aureus: broth dilution, overnight 37 °C. An excerpt: (§3) The bacterial strains used for MIC and MBC value determinations expressed as µg/mL by the broth dilution method, according to CLSI guidelines, were the following: Gram-negative: Escherichia coli (ATCC® 25922TM); Gram-positive: Staphylococcus aureus (ATCC® 23235TM). The MIC represents the lowest concentration of compound able to inhibit the visible microbial growth, expressed in μg/mL, whereas the MBC is the lowest concentration of a given compound that can completely kill the bacteria. Bacteria were grown overnight in LB medium (2%), diluted at a density of […] colony forming units (CFUs/mL), plated in the 96-well microplates to obtain a total inoculum load of ca. 10^5 cells/well and then treated with increasing concentrations of the tested complexes (1, 5, 10, 20, 50, 100, 200 μg/mL). Successively, after incubation at 37 °C overnight, the bacterial growth was monitored at a wavelength of 600 nm using a Multiskan spectrophotometer (Multiskan Ex Microplate model; Thermo Scientific, Nyon, Switzerland). MIC or MBC values were obtained by comparing cell density with a positive control (bacterial cells grown in LB medium were added with only the vehicle, DMSO). The results were representative of three independent experiments performed in triplicate and ampicillin (Sigma Aldrich A9393) was used as the control for strain sensitivity.
(In general: In broth dilution the organism is exposed to a series of concentrations in liquid medium.)

Another assay has as its system MCF-7 cells. Put plainly: MTT assay, anticancer activity, MCF-7. The class given is cell-based, human. Conditions: mean ± SD of three experiments. On the procedure:
as §1, §2
Background: Tetrazolium assays rely on reduction of a dye to a coloured formazan, in cell work by metabolically active cells.

The test system of assay [2] is Escherichia coli (ATCC 25922). In words: MIC and MBC by broth dilution, E. coli. The class given is cell-based. Conditions: for MIC: Escherichia coli, ATCC25922; for MIC / M.B.C. E. coli / M.I.C. E. coli: broth dilution, overnight 37 °C.
Source text: as §3

Another assay deals with MDA-MB-231 cells. Put plainly: MTT assay, anticancer activity, MDA-MB-231. Conditions: for IC50: mean ± SD of three experiments. The format is cell-based, human. The procedure: as §1, §2

A word on the IC50: it is the point on the concentration scale where inhibition reaches its midpoint. The low end stands for greater potency, the high end for weaker potency. Regarding `C[n+]1ccn(C[C@H](O)c2ccccc2)c1.[I-]` [(R)-P1, (R)-1-(2-hydroxy-2-phenylethyl)-3-methyl-1H-imidazol-3-ium iodide], the IC50 in the assay on MCF-10A cells (Homo sapiens, MCF-10A) is more than 200 µM; in the assay with MCF-7 cells (Homo sapiens, MCF7, 72 h) it was more than 200 µM; in the assay with MDA-MB-231 cells (Homo sapiens, MDA-MB-231, 72 h), more than 200 µM. Moreover, the figures for the MIC in assay [1] and in assay [2] were 75 µg/mL and 100 µg/mL, respectively. Also, the “M.B.C. S. aureus” value in assay [1] is listed as more than 150 µg/mL. The “M.B.C. E. coli” value in assay [2] is more than 200 µg/mL.
For `CN1C(Cl)=C(Cl)N(C[C@@H](O)c2ccccc2)[CH]1[Au-][Cl]` (stereo partly drawn) [(S)-AuL2, (4,5-dichloro-1-((S)-2-hydroxy-2-phenylethyl)-3-methyl-2,3-dihydro-1H-imidazol-2-yl)gold(I) chloride], the IC50 in the assay on MCF-10A cells was 17.2 ± 1.6 µM; in the assay with MCF-7 cells (72 h), 10 ± 0.5 µM; with MDA-MB-231 cells (72 h), 11.5 ± 0.4 µM. Further, the “M.B.C. S. aureus” value in assay [1] is more than 100 µg/mL. Besides, in assay [1], the “M.I.C. S. aureus” value was 75 µg/mL. For the same compound, the “M.B.C. E. coli” value in assay [2] is on record as more than 200 µg/mL. The “M.I.C. E. coli” value in assay [2] worked out at 100 µg/mL.
In the assay on MCF-10A cells, `CN1C(Cl)=C(Cl)N(C[C@@H](O)c2ccccc2)[CH]1[AgH][I]` (stereo partly drawn) [(S)-AgL2, (4,5-dichloro-1-((S)-2-hydroxy-2-phenylethyl)-3-methyl-2,3-dihydro-1H-imidazol-2-yl)silver(I) iodide] displayed an IC50 of more than 200 µM. For the same compound, in assay [1], the “M.B.C. S. aureus” value is more than 200 µg/mL and the “M.I.C. S. aureus” value was 75 µg/mL. The compound further returned an IC50 in the assay on MCF-7 cells (72 h) of 4 ± 0.5 µM. Further, in assay [2], the “M.B.C. E. coli” value is more than 200 µg/mL and the “M.I.C. E. coli” value is on record as 75 µg/mL. In the assay on MDA-MB-231 cells (72 h), the “effect on MDA-MB-231 viability (in words)” value is “inactive” and the IC50 is more than 200 µM.
On to `CC1(C)S[C@@H]2[C@H](NC(=O)[C@H](N)c3ccccc3)C(=O)N2[C@H]1C(=O)O` [ampicillin, reference compound], for which the “strain sensitivity S. aureus (in words)” value in assay [1] (control for strain sensitivity) is listed as “sensitive”. Moreover, the “strain sensitivity E. coli (in words)” value in assay [2] (control for strain sensitivity) is “sensitive”.
`CN1C=CN(C[C@@H](O)c2ccccc2)[CH]1[AgH][I]` (stereo partly drawn) [(S)-AgL1, (1-((S)-2-hydroxy-2-phenylethyl)-3-methyl-2,3-dihydro-1H-imidazol-2-yl)silver(I) iodide]: the IC50 with MCF-10A cells was more than 200 µM. In assay [1], the “M.B.C. S. aureus” value is more than 100 µg/mL and the “M.I.C. S. aureus” value amounted to 50 µg/mL. Besides, in the assay on MCF-7 cells (72 h), half-maximal inhibition (IC50) required 69.8 ± 2.1 µM. Further, in assay [2], the “M.B.C. E. coli” value was more than 200 µg/mL and the “M.I.C. E. coli” value stood at 75 µg/mL. The same compound had a half-inhibitory concentration (IC50) in the assay with MDA-MB-231 cells (72 h) of more than 200 µM.
On to `CN1C=CN(C[C@@H](O)c2ccccc2)[CH]1[Au-][Cl]` (stereo partly drawn) [(S)-AuL1, (1-((S)-2-hydroxy-2-phenylethyl)-3-methyl-2,3-dihydro-1H-imidazol-2-yl)gold(I) chloride], for which the values for the IC50 with MCF-10A cells, with MCF-7 cells (72 h) and with MDA-MB-231 cells (72 h) were 64.5 ± 3.2 µM, 14.6 ± 1 µM and 22.6 ± 0.4 µM, respectively. For the same compound, the “M.B.C. S. aureus” value in assay [1] is on record as more than 150 µg/mL. Further, in assay [1], the “M.I.C. S. aureus” value is recorded as 75 µg/mL. For the same compound, the “M.B.C. E. coli” value in assay [2] is reported as more than 150 µg/mL. Also, the “M.I.C. E. coli” value in assay [2] was found to be 75 µg/mL.
Consider `CN1C=CN(C[C@H](O)c2ccccc2)[CH]1[AgH][I]` (stereo partly drawn) [(R)-AgL1, (1-((R)-2-hydroxy-2-phenylethyl)-3-methyl-2,3-dihydro-1H-imidazol-2-yl)silver(I) iodide], for which the figures for the IC50 with MCF-10A cells, in the assay on MCF-7 cells (72 h) and in the assay on MDA-MB-231 cells (72 h) were 54.8 ± 2.1 µM, 14.5 ± 1.2 µM and 9.2 ± 0.5 µM, respectively. In addition, in assay [1], the “M.B.C. S. aureus” value is on record as more than 150 µg/mL. The “M.I.C. S. aureus” value in assay [1] is 75 µg/mL. In addition, the “M.B.C. E. coli” value in assay [2] was more than 100 µg/mL. Moreover, in assay [2], the “M.I.C. E. coli” value turned out to be 25 µg/mL.
In the assay with MCF-10A cells, `CN1C(Cl)=C(Cl)N(C[C@H](O)c2ccccc2)[CH]1[AgH][I]` (stereo partly drawn) [(R)-AgL2, (4,5-dichloro-1-((R)-2-hydroxy-2-phenylethyl)-3-methyl-2,3-dihydro-1H-imidazol-2-yl)silver(I) iodide] had an IC50 of 69.2 ± 2.7 µM. Besides, in assay [1], the “M.B.C. S. aureus” value is given as more than 150 µg/mL and the “M.I.C. S. aureus” value worked out at 75 µg/mL. 18.4 ± 0.9 µM corresponded to half-maximal inhibition in the assay with MCF-7 cells (72 h) (IC50). Also, in assay [2], the “M.B.C. E. coli” value is more than 100 µg/mL and the “M.I.C. E. coli” value is listed as 50 µg/mL. Half-maximal inhibition in the assay on MDA-MB-231 cells (72 h) (IC50) was put at 6.7 ± 0.7 µM.
Regarding `C[n+]1ccn(C[C@@H](O)c2ccccc2)c1.[I-]` [(S)-P1, (S)-1-(2-hydroxy-2-phenylethyl)-3-methyl-1H-imidazol-3-ium iodide], the IC50 with MCF-10A cells (Homo sapiens, MCF-10A) was more than 200 µM; with MCF-7 cells (Homo sapiens, MCF7, 72 h), more than 200 µM; with MDA-MB-231 cells (Homo sapiens, MDA-MB-231, 72 h), more than 200 µM. Besides, the MIC worked out at 75 µg/mL in assay [1] and 100 µg/mL in assay [2]. Moreover, in assay [1], the “M.B.C. S. aureus” value is more than 150 µg/mL. Moreover, the “M.B.C. E. coli” value in assay [2] is recorded as more than 200 µg/mL.
For the compound `C[n+]1cn(C[C@@H](O)c2ccccc2)c(Cl)c1Cl.[I-]` [(S)-P2, (S)-4,5-dichloro-1-(2-hydroxy-2-phenylethyl)-3-methyl-1H-imidazol-3-ium iodide], the IC50 in the assay with MCF-10A cells (Homo sapiens, MCF-10A) was more than 200 µM; in the assay on MCF-7 cells (Homo sapiens, MCF7, 72 h) it was more than 200 µM; with MDA-MB-231 cells (Homo sapiens, MDA-MB-231, 72 h), more than 200 µM. The MIC in assay [1] and in assay [2] was 75 µg/mL in each case. Moreover, the “M.B.C. S. aureus” value in assay [1] is given as more than 200 µg/mL. The “M.B.C. E. coli” value in assay [2] is more than 150 µg/mL.
Consider `C[n+]1cn(C[C@H](O)c2ccccc2)c(Cl)c1Cl.[I-]` [(R)-P2, (R)-4,5-dichloro-1-(2-hydroxy-2-phenylethyl)-3-methyl-1H-imidazol-3-ium iodide], for which the IC50 was more than 200 µM in the assay with MCF-10A cells (Homo sapiens, MCF-10A); more than 200 µM in the assay with MCF-7 cells (Homo sapiens, MCF7, 72 h); more than 200 µM in the assay on MDA-MB-231 cells (Homo sapiens, MDA-MB-231, 72 h). Moreover, the MIC in assay [1] and in assay [2] was 75 µg/mL in each case. For the same compound, in assay [1], the “M.B.C. S. aureus” value is reported as more than 150 µg/mL. For the same compound, in assay [2], the “M.B.C. E. coli” value is reported as more than 200 µg/mL.

For the origin of these results see publication PMC11596155, “When Chirality Makes the Difference: The Case of Novel Enantiopure N-Heterocyclic Carbene–Gold and –Silver Complexes” (Molecules, 2024).
